# Test results taken from patent publication US8940286B2, “Urate transporter, as well as method and kit for evaluating urate transport-related disease factor and inflammation-related disease factor, and test sample and drug” (The University of Tokyo, priority 2009, dated 2015).
# Where a name gives a salt, the structure may show the parent alone.
# T1: mouse Abcg2 (Mus musculus, UniProt Q7TMS5)
# T1 construct: expressed in transfected cells; host or cells: HEK293 (transient transfection, myc-mAbcg2/pcDNA3.1(+)); cell membrane vesicles
# T1 sequence (Q7TMS5 1-657): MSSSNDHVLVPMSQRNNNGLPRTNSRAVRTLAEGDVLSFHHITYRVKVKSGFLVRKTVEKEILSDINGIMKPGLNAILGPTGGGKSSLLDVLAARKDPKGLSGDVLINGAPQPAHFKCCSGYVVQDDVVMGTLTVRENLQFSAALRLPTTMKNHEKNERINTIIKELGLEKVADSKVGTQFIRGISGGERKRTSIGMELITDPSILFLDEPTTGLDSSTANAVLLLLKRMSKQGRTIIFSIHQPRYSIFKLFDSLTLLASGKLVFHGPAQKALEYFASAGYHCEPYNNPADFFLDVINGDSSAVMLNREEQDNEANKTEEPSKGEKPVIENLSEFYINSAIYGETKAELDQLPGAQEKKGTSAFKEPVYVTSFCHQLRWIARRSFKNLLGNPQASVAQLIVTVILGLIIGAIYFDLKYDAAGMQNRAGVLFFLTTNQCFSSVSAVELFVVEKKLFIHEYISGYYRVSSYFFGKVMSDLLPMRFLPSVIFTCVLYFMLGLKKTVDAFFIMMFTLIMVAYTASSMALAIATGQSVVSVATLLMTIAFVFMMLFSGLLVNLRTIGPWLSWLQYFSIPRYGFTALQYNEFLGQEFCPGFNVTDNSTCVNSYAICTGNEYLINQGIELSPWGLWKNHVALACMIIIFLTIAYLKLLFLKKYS
# T2: ABCG2 (Homo sapiens, UniProt Q9UNQ0)
# T2 sequence (Q9UNQ0 1-655): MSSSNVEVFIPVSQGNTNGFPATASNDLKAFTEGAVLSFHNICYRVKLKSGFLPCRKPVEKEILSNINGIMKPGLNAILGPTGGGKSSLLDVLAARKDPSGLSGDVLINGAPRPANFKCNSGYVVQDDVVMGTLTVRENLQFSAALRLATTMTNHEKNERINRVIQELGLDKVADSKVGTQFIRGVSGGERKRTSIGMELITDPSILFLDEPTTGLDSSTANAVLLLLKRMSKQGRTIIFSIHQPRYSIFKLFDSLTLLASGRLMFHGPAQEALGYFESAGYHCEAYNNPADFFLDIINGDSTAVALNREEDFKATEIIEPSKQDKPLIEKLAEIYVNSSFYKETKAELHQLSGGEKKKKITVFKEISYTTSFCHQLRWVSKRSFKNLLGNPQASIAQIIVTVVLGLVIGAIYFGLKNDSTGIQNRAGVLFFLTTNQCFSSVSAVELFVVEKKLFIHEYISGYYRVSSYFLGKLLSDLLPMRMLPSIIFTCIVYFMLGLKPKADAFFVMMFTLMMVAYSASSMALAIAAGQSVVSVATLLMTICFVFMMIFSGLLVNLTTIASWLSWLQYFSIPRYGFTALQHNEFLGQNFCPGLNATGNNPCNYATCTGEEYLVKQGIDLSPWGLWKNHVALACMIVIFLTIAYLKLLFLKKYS
# B1: ABCG2 (Homo sapiens) (protein)
# chain: T2 sequence (Q9UNQ0 1-655)
# notes: expressed in transfected cells; host or cells: HEK293 (transient transfection, pcDNA3.1(+)); isolated membrane vesicles
# What was measured:
# mouse Abcg2 = molecular target: T1, mouse Abcg2; assay: [14C]urate transport in mouse Abcg2-expressing membrane vesicles; assay type: biochemical; details: uric acid 250 μM to 4 mM, cell membrane vesicles
# Source text: A mouse Abcg2 expression vector was constructed by amplifying a cDNA of mouse Abcg2 with a myc tag sequence attached to the N-terminus, integrating it into pGEM T-Easy Vector (Promega, Madison, Wis.), and then integrating it into a Not I site of a pcDNA3.1(+) vector via a restriction enzyme treatment.
# Also, in order to confirm whether or not the mouse Abcg2 transports urate in the same manner as in human ABCG2, HEK293 cells into which the mouse myc-Abcg2 expression vector was transiently introduced were recovered, and cell membrane vesicles were prepared.
# Transport experiments were performed using cell membrane vesicles and using radioisotope-labeled uric acid as a substrate. As a result, it was confirmed that the mouse Abcg2 also transports uric acid in the same manner as in human ABCG2. Also, transport experiments were performed in uric acid concentrations of 250 μM, 500 μM, 1 mM, 1.5 mM, 2 mM, and 4 mM, respectively. […] Whereby, it was shown that mouse Abcg2 is a high-capacity urate transporter which can function even in the presence of a high concentration of uric acid.
# ABCG2 [1] = molecular target: T2, ABCG2; assay: inhibition of ABCG2-mediated [3H]estrone-3-sulfate transport in membrane vesicles; details: [3H]ES 500 nM, vesicle transport assay, HEK293 membrane vesicles
# Source text: Wild-type ABCG2 cDNA was inserted into the Nhe I site and Apa I site of pcDNA3.1(+) vector plasmid (Invitrogen, Carlsbad, Calif.), with a myc-tag sequence attached at the 5′ end. To prepare membrane vesicles, HEK293 cells were transiently transfected with an expression vector for ABCG2 or an empty vector using FuGENE6 (Roche Diagnostics, Indianapolis, Ind.). Forty-eight hours later, cells were harvested and the membrane vesicles were isolated using a standard method. The uptake study of [^3H]estrone-3-sulfate (ES, 500 nM) and [^14C]urate (28 μM) was performed.
# Using membrane vesicles prepared from ABCG2-expressing cells, the inhibitory effect of urate on ABCG2-mediated transport of its typical substrate, ES (estrone-3-sulfate) was examined.
# The inhibitory effect on the transport of [^3H]estrone-3-sulfate (ES, 500 nM), a typical substrate of ABCG2 was examined using the vesicle transport assay system.
# ABCG2 [2] = molecular target: T2, ABCG2; details: typical ABCG2 substrates, low capacity; read-out: Km value of transport by ABCG2; cited from earlier work
# [3] = substrate: O=c1[nH]c(=O)c2[nH]c(=O)[nH]c2[nH]1; assay: ATP-dependent [14C]urate transport in ABCG2-expressing membrane vesicles; assay type: biochemical, human; details: other: membrane vesicles from ABCG2-expressing HEK293 cells
# Description: As shown in FIG. 3 (A), an ATP-dependent urate transport was detected in ABCG2-expressing vesicles but not in control vesicles. This is the first evidence of a direct high-capacity urate transport via ABCG2. Because of a mild inhibitory effect on the ES transport, urate was assumed to be a high-capacity substrate of ABCG2. Indeed, as shown in FIG. 3 (B), ABCG2-mediated urate transport scarcely reached saturation at concentrations of 1 mM or less.
# Typical ABCG2 substrates, e.g., sulfate conjugates such as ES, 4-methylumbelliferone sulfate, and E3040 sulfate, are transported by ABCG2 with low capacity (Km value of about 20 μM).
Molecule,inhibitory effect on the transport of [3H]estrone-3-sulfate (ABCG2 [1]),Km (ABCG2 [2]),further results
O=c1[nH]c(=O)c2[nH]c(=O)[nH]c2[nH]1 [urate],–,–,saturability of urate transport via mouse Abcg2 (mouse Abcg2): no saturability
"C[C@]12CC[C@@H]3c4ccc(OS(=O)(=O)O)cc4CC[C@H]3[C@@H]1CCC2=O [ES, estrone-3-sulfate]",inhibition,~20 µM,–
"Cc1cn([C@H]2C[C@H](N=[N+]=[N-])[C@@H](CO)O2)c(=O)[nH]c1=O [AZT, 3′-azido-3′-deoxythymidine]",inhibition,–,–
Cc1cc(=O)oc2cc(OS(=O)(=O)O)ccc12 [4-methylumbelliferone sulfate],–,~20 µM,–
CNc1nc2c(Cc3cccnc3)c(C)c(OS(=O)(=O)O)c(C)c2s1 [E3040 sulfate],–,~20 µM,–
B1,–,–,Km [3]: 8240 ± 1440 µM; Vmax [3]: 6.96 ± 0.89 nmol/min/mg (protein)
